Test [1] in a line: Kinetic study of the reaction between TTS and H2S (UV-Vis, 380 nm). Type of test: physicochemical. Set-up: unit not given here. Conditions: TTS 50 μM, Na2S 5 mM, PBS pH 7.4, room temperature; average of 3 trials. As to the method: FIG. 1A depicts UV-Vis absorbance spectra changes of the reaction between TTS (100 μM) and H2S (200 μM) over 1 min intervals. FIG. 1B depicts representative time-dependent [TTS] changes based on UV-Vis absorption changes at 380 nm of the reaction between TTS (50 μM) and Na2S (5 mM). FIG. 1C depicts representative time-dependent −ln([TTS]/[TTS]0) changes based on UV-Vis absorption changes at 380 nm of the reaction between TTS (50 μM) and Na2S (5 mM). […] See Kolb, H. C. et al., Click chemistry: diverse chemical function from a few good reactions. Angew. Chem. Int. Ed. 2001, 40, 2004-2021.
Kinetic study of the reaction between TTS and H2S: TTS (10 μL, 10 mM in DMSO solution, final concentration=50 μM) and Na2S (20 μL, 500 mM in MilliQ H2O, final concentration=5 mM), reacted in PBS buffer (50 mM, pH=7.4) (2 mL) at room temperature. The kinetics were detected by UV-Vis absorbance spectrum (λ=380 nm) based on the decrease of TTS. This reaction can be seen as a pseudo-first order reaction; the second-order k constant (k) was calculated by: […]
The final k reported above was calculated by taking the average of the k values from 3 trials. • To determine [TTS] at each time point: […]

The nature of test [2]: Measurement of H2S2 formation from JK-1 with TTS (SSP4). Conditions: TTS 200 μM + JK-1 400 μM, 30 min incubation, pH 7.4. As to the method:
Measurement of H2S2 formation from JK-1 with TTS: JK-1 (1.1 mg) was added to a 1 dram vial and 4.484 mL of 50 mM PBS (pH 6.0) was then added to obtain a 1 mM stock solution with no headspace in the vial. The solution was vortexed to mix and then incubated in the dark at rt for 20 min. Based on the H2S-release profile reported under the same conditions (see Kang, J. et al., J. Am. Chem. Soc. 2016, 138, 6336), 400 μM of H2S (40% of 1 mM) should be released. The pH of the solution was then adjusted to 7.4 by adding 16 μL 2N NaOH. The same volume of 50 mM PBS (pH 6.0) buffer was added to an empty 1 dram vial and 16 μL of 2N NaOH was added to adjust the pH of the buffer similarly for the controls. After incubation, 500 μL of the pH-adjusted PBS was aliquoted to nine 1.5 mL Eppendorf tubes while the same volume of JK-1 solution was aliquoted into six 1.5 mL Eppendorf tubes. […] 200 μL of each tube was then added to separate wells on a 96-well black flat clear-bottomed plate before being measured on a Molecular Devices SpectraMax iD3 Multi-Mode Microplate Reader (emission 535 nm; excitation 485 nm; integration time […], low PMT sensitivity, attenuation 1, read height 3.00 mm).
JK-1 in buffer was mixed with TTS to generate H2S2. After a 30 min incubation, the formation of H2S2 was measured by SSP4.

Another test relates to HeLa cells. The test is described as follows: Live cell imaging of H2S2 formation with SSP4. It is filed as cell-based. The settings on record: 30 min. As to the method: HeLa cells were seeded at ~7000 cells/well in a 96-well clear flat-bottomed BioLite plate (ThermoFisher Scientific, #130188) in DMEM/F12 (1:1) (Gibco, Invitrogen, #11330-032) medium supplemented with 10% fetal bovine serum (FBS) at 37° C., 5% CO2 overnight.
Preparation before cell treatment: Na2S and Na2S2 stocks were prepared at 10 mM in sterile 1×PBS. TTS and TT were prepared at 10 mM concentrations in DMSO. They were then diluted to 50 μM concentrations in serum-free Fluorobrite DMEM in individual Eppendorf tubes (0.5% DMSO). Na2S (final concentration=100 μM) was added to the Eppendorf tube containing Fluorobrite DMEM and TTS or TT immediately before being added to the cells. Compounds were mixed by pipetting up and down prior to cell addition.
Cell treatment: Culturing media was aspirated from all wells, and cells were washed twice with 1×PBS. Compounds were added to cells (200 μL/well) and incubated for 30 min at 37° C., 5% CO2. While cells were incubating, SSP4 treatment was prepared by first adding 5 mM CTAB in ethanol to Fluorobrite DMEM followed by 6.125 mM SSP4 in DMSO to final concentrations of 100 μM and 5 μM, respectively, in a tube. The final volume was 5 mL (0.08% DMSO). Compounds were mixed by pipetting up and down prior to cell addition. After incubation, media was aspirated, and cells were washed twice with 1×PBS. SSP4 treatment was added to all wells (100 μL/well), and cells were incubated for 30 min at 37° C., 5% CO2 for 30 min. Media was then aspirated, and cells were washed three times with 1×PBS. Fluorobrite DMEM was added to all wells before imaging on the Keyence All-in-One Fluorescence Microscope (BZ-X810) (excitation: 470/40 nm; emission: 525/50 nm).
As shown in FIGS. 4(A)-(D), HeLa cells were treated with TTS, TTS+H2S, or TT for 30 min before the fluorescent sensor SSP4 was applied to the cells to monitor the formation of H2S2. […] Na2S2 was used as the positive control in this study (FIG. 4D). Other control studies including TT+H2S, H2S only, and SSP4 only were also performed. […] FIG. 4H is a graph of fluorescence intensities of SSP4 staining. Data are mean values ±SEM calculated using ImageJ. (n=9, where three different images were obtained from each of three samples and quantified).

As for `COC(=O)c1ccc(=S=O)sc1` [TTS, 2H-thiopyran-2-thione sulfine], the “second-order rate constant k2 of the reaction between TTS and H2S” value in test [1] is reported as 2.7. The “SSP4 fluorescence (H2S2 formation)” value in test [2] is recorded as “strong fluorescence”. The “SSP4 fluorescence in HeLa cells” value in the test with HeLa cells (compound 50 μM + Na2S 100 μM) is “Significant green fluorescence”; in the test on HeLa cells (compound only), “did not show obvious fluorescence”.

Source of the values: patent US20260265055A1, “Sulfine-Based Compounds for Generating Hydrogen Persulfide” (Brown University, priority 2023, published 2026).
